From US20110118298A1, “COMPOSITIONS, KITS, AND METHODS FOR IDENTIFICATION, ASSESSMENT, PREVENTION, AND THERAPY OF CANCER” (INFINITY PHARMACEUTICALS, INC., priority 2009, published 2011)
Entries after “also recorded” stand apart in the source; their conditions may differ. Where a name gives a salt, the structure may show the parent alone. Marks after values point to notes of the source that are not given here.

Assays:
[1] = tested on: MAPK pathway (p-bRAF, p-MEK), cleaved caspase 3 in Colo320HSR xenograft; test: Pharmacodynamic analysis after a single dose, wild-type xenograft; format: in vivo; conditions: single 100 mpk dose of IPI-493, Colo320HSR; 100 mg/kg
Description: To further investigate a potential correlation between the effect of IPI-493 on molecular components of the RAS-RAF-ERK pathway and efficacy, pharmacodynamic analysis was performed on mutant bRAF (Colo205, Colo201) and wild-type (Colo320HSR) xenograft models after a single 100 mpk dose. […] Moreover, when p-MEK activity was assessed for all the CRC xengrafts, there was a clear delineation of sensitivity between mutant and wild type models, further supporting the hypothesis that MAPK pathway activity can be a surrogate for IPI-493 efficacy. […] Altogether, these provide rationale for a clinical path in this disease.

[2] = tested on: non-small cell lung cancer (NSCLC); test: Phase II study of IPI-504 monotherapy in advanced NSCLC after EGFR TKI therapy: response and PFS; format: in vivo, human
Source text: Patients with advanced NSCLC, prior treatment with EGFR TKIs, and tumor tissue available for molecular genotyping were enrolled in this prospective, non-randomized, multicenter, phase II study of IPI-504 monotherapy. The primary outcome was objective response rate. Secondary aims included safety, progression-free survival (PFS), and analysis of activity by molecular subtypes.
Each genotype-defined arm of the trial (mutant EGFR cohort or wild-type EGFR cohort) functioned as a Simon two-stage study with planned interim evaluation after 10 patients and expanded enrollment of an additional 19 patients (a total of 29 patients) if there was at least one patient with a complete response (CR), partial response (PR) or stable disease (SD) lasting 3 months. As pre-defined EGFR genotype was not a requirement at study entry, the trial remained open until both cohorts fully enrolled, which led to over-enrollment of the wild-type arm. Secondary aims included describing the safety and progression-free survival (PFS) of the regimen, and examining molecular markers associated with response.
Patients were recruited between December 2007 and May 2009 from ten US cancer centers. To be eligible, patients had to have stage IIIB (with pleural effusion), or stage 1V NSCLC with progression on EGFR TKI therapy at some point in their history; adequate baseline renal, hepatic, and bone marrow function; Eastern Cooperative Oncology Group performance status (PS) of 0-2; measurable disease by RECIST 1.0; no active or untreated central nervous system (brain) metastases; no significant cardiac conduction abnormalities; no ongoing keratoconjunctivitis; and either previously defined EGFR genotype or sufficient tumor tissue to undergo genotype assessment, for example, EGFR mutation analysis (EGFR status not required for study entry) (Therasse, P. et al. (2000) J Natl Cancer Inst 92, 205-216; Oken, M. M. et al. (1982) Am J Clin Oncol. 5:649-655). Patients had experienced prior EGFR TKI therapy and there was no limit on prior therapies. All patients signed a written informed consent and the study was monitored by all local institutional review boards. Funding for the trial was provided by Infinity Pharmaceuticals, Inc.
Treatment consisted of a 30-minute infusion of intravenous IPI-504 on days 1, 4, 8 and 11 of a 21-day cycle. Therapy continued until progressive disease (PD), intolerable side effects, or elective withdrawal. A total of 76 patients were enrolled. The starting dose was 400 mg/m^2 for 75 patients. In April 2009, the dose for patients who were on study (19 patients) was lowered to 225 mg/m^2, due to hepatotoxicities observed at the 400 mg/m^2 dose in a separate trial of IPI-504 in patients with gastrointestinal stromal tumors (GIST) (Demetri G. D. et al. Final results from a phase III study of IPI-504 (retaspimycin hydrochloride) versus placebo in patients with gastrointestinal stromal tumors (GIST) following failure of kinase inhibitor therapies. Paper presented at: Gastrointestinal Cancers Symposium; Jan. 22-24, 2010, 2010; Orlando, Fla.), and the last enrolled patient started at a dose of 225 mg/m^2.
All patients were assessed for safety by history, physical examination, blood chemistries, liver function tests and blood counts, at baseline and prior to each infusion. Amylase and lipase were assessed if there were symptoms of pancreatitis. Adverse events were graded using the NCl common toxicity criteria version 3.0 (NCl. Common terminology criteria for adverse events (CTCAE) version 3.0 Aug. 9, 2006). Slit lamp eye examinations were performed during screening and electrocardiograms were obtained during screening and before and after the first infusion, to evaluate for keratitis and QTc prolongation, respectively. Radiographic evaluation of tumor response by CT-scan was performed after every 2 cycles. All films were reviewed and independently assessed by a central radiology core laboratory. […]

## CO[C@H]1/C=C\C=C(/C)C(=O)NC2=CC(=O)C(N)=C(C[C@@H](C)C[C@H](OC)[C@H](O)[C@@H](C)/C=C(\C)[C@@H]1OC(N)=O)C2=O [IPI-493, 17-AG]
[1]
  p-bRAF, p-MEK, cleaved caspase 3 in wild type model: little effect of IPI-493 administration; also recorded: Minimal changes

## C=CCNc1c(O)cc2c(O)c1C[C@@H](C)C[C@H](OC)[C@H](O)[C@@H](C)/C=C(\C)[C@H](OC(N)=O)[C@@H](OC)/C=C\C=C(/C)C(=O)N2 [IPI-504, retaspimycin hydrochloride]
[2]; 3 patients with ALK rearrangements
  time on IPI-504 without progression or death: approximately 7 months
[2]; ALK No Rearrangement Detected
  RECIST Stable Disease or better for at least 3 months: 3 (25) n [%]
[2]; ALK No Rearrangement Detected, 12 patients
  Objective Response Rate (All PRs): 1 (8) n [%]
[2]; ALK No Rearrangement Detected, no unit in table
  Median PFS: 2.43
[2]; ALK Rearrangement Detected
  RECIST Stable Disease or better for at least 3 months: 3 (100) n [%]
[2]; ALK Rearrangement Detected, 3 patients
  Objective Response Rate (All PRs): 2 (67) n [%]
[2]; EGFR Mutant
  RECIST Stable Disease or better for at least 3 months: 6 (21) n [%]
[2]; EGFR Mutant, 28 patients
  Objective Response Rate (All PRs): 1 (4) n [%]
[2]; EGFR Mutant, no unit in table
  Median PFS: 2.76
[2]; EGFR Wild Type
  RECIST Stable Disease or better for at least 3 months: 10 (25) n [%]
[2]; EGFR Wild Type, 40 patients
  Objective Response Rate (All PRs): 4 (10) n [%]
[2]; EGFR Wild Type, no unit in table
  Median PFS: 2.86
[2]; EGFR wild-type patients
  response rate: 10%
[2]; KRAS Mutant
  RECIST Stable Disease or better for at least 3 months: 5 (42) n [%]
[2]; KRAS Mutant, 12 patients
  Objective Response Rate (All PRs): 0 (0) n [%]
[2]; KRAS Mutant, no unit in table
  Median PFS: 3.91
[2]; KRAS Wild Type
  RECIST Stable Disease or better for at least 3 months: 4 (15) n [%]
[2]; KRAS Wild Type, 26 patients
  Objective Response Rate (All PRs): 3 (12)* n [%]
[2]; KRAS Wild Type, no unit in table
  Median PFS: 2.86
[2]; KRAS wild-type patients
  response rate: 12%
[2]; Total, 76 patients
  Objective Response Rate (All PRs): 5 (7) n [%]
  RECIST Stable Disease or better for at least 3 months: 18 (24) n [%]
[2]; Total, no unit in table, months
  Median PFS: 2.86
[2]; all patients
  Median PFS: 2.86 months
[2]; of the 3 patients with an ALK gene rearrangement
  patients with partial response: 2 patients
[2]; overall study population
  overall response rate: 7%
[2]; patients with EGFR mutations
  response rate: 4%
[2]; patients with an ALK rearrangement
  response rate: 67%
[2]; third patient with ALK rearrangement (stable disease)
  reduction in tumor size: 24%
